Among the data in patent US20240409585A1, “MACROCYCLIC IMMUNOMODULATORS” (priority 2021, published 2024) are IC50 values, retold here.

Bridge positions count the residues as written; N and C are the ends. Square brackets hold non-standard residues; d marks the D form. Peptide text beside a SMILES is read from it. * marks the point of attachment. ξ: configuration not given here. Ala(1H-tetrazol-5-yl) = N[C@@H](Cc1nnn[nH]1)C(=O)O; Phe(4-COOH) = N[C@@H](Cc1ccc(C(=O)O)cc1)C(=O)O; Bip = N[C@@H](Cc1ccc(-c2ccccc2)cc1)C(=O)O; dPhe(4-NH2) = Nc1ccc(C[C@@H](N)C(=O)O)cc1; Phe(3-CN) = N#Cc1cccc(C[C@H](N)C(=O)O)c1; Phe(3-F) = N[C@@H](Cc1cccc(F)c1)C(=O)O; Phe(3-Me) = Cc1cccc(C[C@H](N)C(=O)O)c1; Val(3-OH) = CC(C)(O)[C@H](N)C(=O)O; 4Pal = N[C@@H](Cc1ccncc1)C(=O)O; Cha = N[C@@H](CC1CCCCC1)C(=O)O; Cit = NC(=O)NCCC[C@H](N)C(=O)O; Thr(3ξ) = CC(O)[C@H](N)C(=O)O; Carboxymethyl = O=C(O)C*; NMeA = CN[C@@H](C)C(=O)O; Orn = NCCC[C@H](N)C(=O)O; Dab = NCC[C@H](N)C(=O)O; Dap = NC[C@H](N)C(=O)O; Piv = CC(C)(C)C(=O)*

This test deals with T1, PE-labeled human PD-L1-Ig binding to Jurkat cell line over-expressing human PD-1 (Jurkat-PD-1) (Homo sapiens, UniProt Q15116).
T1 construct: expressed in transfected cells; host or cells: Jurkat
T1 sequence (Q15116 25-288): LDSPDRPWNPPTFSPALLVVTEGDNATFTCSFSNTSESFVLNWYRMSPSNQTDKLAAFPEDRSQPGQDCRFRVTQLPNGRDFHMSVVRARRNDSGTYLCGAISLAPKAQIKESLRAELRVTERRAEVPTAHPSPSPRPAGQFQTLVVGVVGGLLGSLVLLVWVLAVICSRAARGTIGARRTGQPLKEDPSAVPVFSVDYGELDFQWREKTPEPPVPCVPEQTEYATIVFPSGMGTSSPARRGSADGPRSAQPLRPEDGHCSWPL
The experiment in a line: Jurkat-PD-1 Cell Binding High-Content Screening Assay (CBA): Method 1. The conditions noted are these: Jurkat-hPD-1 cells, PE-labeled PD-L1-Ig 20 nM final; read-out: Jurkat HPDL1 PD1 IC50 (uM) (Method 1).
Consider `CC(C)C[C@@H]1NC(=O)[C@H](CCN)NC(=O)[C@@H](CC(C)C)NC(=O)[C@H](C)N(C)C(=O)[C@H](C(C)C)NC(=O)[C@H](Cc2ccc(-c3ccccc3)cc2)NC(=O)[C@H](C(C)C)NC(=O)[C@H](Cc2c[nH]c3ccccc23)NC(=O)[C@H](CC(=O)O)NC(=O)[C@H](Cc2ccc(O)cc2)NC(=O)[C@H](Cc2cnc[nH]2)NC(=O)CSC[C@@H](C(=O)N[C@@H](C)C(N)=O)NC(=O)[C@H]([C@@H](C)O)NC(=O)[C@H](C(C)C)NC1=O` [Compound 1358] ({CH2CO}-HYDWV[Bip]V[NMeA][dL][Dab]LVTCA-NH2; thioether N-14), for which the IC50 (in general, the midpoint of a concentration-inhibition curve) is 0.01 µM. For the compound `CC(C)C[C@@H]1NC(=O)[C@H](CCN)NC(=O)[C@@H](CC(C)C)NC(=O)[C@H](C)N(C)C(=O)[C@H](CCCN)NC(=O)[C@H](Cc2ccc(-c3ccccc3)cc2)NC(=O)[C@H](C(C)C)NC(=O)[C@H](Cc2c[nH]c3ccccc23)NC(=O)[C@H](CC(=O)O)NC(=O)[C@H](Cc2ccc(O)cc2)NC(=O)[C@H](CN)NC(=O)CSC[C@@H](C(=O)N[C@@H](C)C(N)=O)NC(=O)[C@H](C(C)O)NC(=O)[C@H](C(C)C)NC1=O` (stereo partly drawn) [Compound 2080] ({CH2CO}-[Dap]YDWV[Bip][Orn][NMeA][dL][Dab]LV[Thr(3ξ)]CA-NH2; thioether N-14), the half-inhibitory concentration (IC50) stood at 0.15 µM. Regarding `Cc1cccc(C[C@@H]2NC(=O)[C@H](CC(=O)O)NC(=O)[C@H](Cc3ccc(OCC(=O)O)cc3)NC(=O)[C@H](C(C)O)NC(=O)CSC[C@@H](C(=O)N[C@@H](CCNC(=O)C(C)(C)C)C(N)=O)NC(=O)[C@H](Cc3cnc[nH]3)NC(=O)[C@H](C(C)(C)O)NC(=O)[C@H](CC3CCCCC3)NC(=O)[C@H](CCN)NC(=O)[C@@H](CC(C)C)NC(=O)[C@H](C)N(C)C(=O)[C@H](Cc3ccc(OCC(=O)O)cc3)NC(=O)[C@H](Cc3ccc(-c4ccccc4)cc3)NC(=O)[C@H](Cc3ccc(C(=O)O)cc3)NC2=O)c1` (stereo partly drawn) [Compound 2164] ({CH2CO}-[Thr(3ξ)]Y(Carboxymethyl)D[Phe(3-Me)][Phe(4-COOH)][Bip]Y(Carboxymethyl)[NMeA][dL][Dab][Cha][Val(3-OH)]HC[Dab](Piv)-NH2; thioether N-14), the IC50 was 0.05 µM. Under `CC(C)C[C@@H]1NC(=O)[C@H](Cc2c[nH]c3ccccc23)NC(=O)[C@H](CC(=O)O)NC(=O)[C@H](Cc2ccc(O)cc2)NC(=O)[C@H](Cc2ccccc2)NC(=O)CSC[C@@H](C(=O)N[C@@H](C)C(N)=O)NC(=O)[C@H](CO)NC(=O)[C@H](C(C)C)NC(=O)[C@H](CC(C)C)NC(=O)[C@H](CCCNC(=N)N)NC(=O)[C@@H](C)NC(=O)[C@H](C)N(C)C(=O)[C@H](CCCNC(=N)N)NC(=O)[C@H](Cc2ccc(-c3ccccc3)cc2)NC1=O` [Compound 1782] ({CH2CO}-FYDWL[Bip]R[NMeA][dA]RLVSCA-NH2; thioether N-14) stands 0.08 µM; under `CC(C)C[C@@H]1NC(=O)[C@H](Cc2c[nH]c3ccccc23)NC(=O)[C@H](CC(=O)O)NC(=O)[C@H](Cc2ccc(O)cc2)NC(=O)[C@H](Cc2ccccc2)NC(=O)CSC[C@@H](C(=O)N[C@@H](C)C(N)=O)NC(=O)[C@H]([C@@H](C)O)NC(=O)[C@H](CCCNC(=N)N)NC(=O)[C@H](CC(C)C)NC(=O)[C@H](CC(N)=O)NC(=O)[C@@H](C)NC(=O)[C@H](C)N(C)C(=O)[C@H](C(C)C)NC(=O)[C@H](Cc2ccc(-c3ccccc3)cc2)NC1=O` [Compound 1789] ({CH2CO}-FYDWL[Bip]V[NMeA][dA]NLRTCA-NH2; thioether N-14), 0.12 µM.

Consider `CC(C)C[C@@H]1NC(=O)[C@H](Cc2c[nH]c3ccccc23)NC(=O)[C@H](CC(=O)O)NC(=O)[C@H](Cc2ccc(OCC(=O)O)cc2)NC(=O)[C@H](Cc2ccncc2)NC(=O)CSC[C@@H](C(=O)N[C@@H](C)C(N)=O)NC(=O)[C@H](CO)NC(=O)[C@H](C(C)C)NC(=O)[C@H](CC(C)C)NC(=O)[C@H](CC(N)=O)NC(=O)[C@@H](CC(C)C)NC(=O)[C@H](C)N(C)C(=O)[C@H](C(C)C)NC(=O)[C@H](Cc2ccc(-c3ccccc3)cc2)NC1=O` [Compound 1592] ({CH2CO}-[4Pal]Y(Carboxymethyl)DWL[Bip]V[NMeA][dL]NLVSCA-NH2; thioether N-14), for which the IC50 worked out at 0.01 µM. For `CC(C)C[C@@H]1NC(=O)[C@H](CCN)NC(=O)[C@@H](CC(C)C)NC(=O)[C@H](C)N(C)C(=O)[C@H](CCCNC(=N)N)NC(=O)[C@H](Cc2ccc(-c3ccccc3)cc2)NC(=O)[C@H](C(C)C)NC(=O)[C@H](Cc2c[nH]c3ccccc23)NC(=O)[C@H](CC(=O)O)NC(=O)[C@H](Cc2ccncc2)NC(=O)[C@H](CC(N)=O)NC(=O)CSC[C@@H](C(=O)N[C@@H](C)C(N)=O)NC(=O)[C@H]([C@@H](C)O)NC(=O)[C@H](C(C)C)NC1=O` [Compound 1146] ({CH2CO}-N[4Pal]DWV[Bip]R[NMeA][dL][Dab]LVTCA-NH2; thioether N-14), the IC50 worked out at 0.06 µM. Then `Cc1cccc(C[C@@H]2NC(=O)[C@H](CC(=O)O)NC(=O)[C@H](Cc3ccc(C(=O)O)cc3)NC(=O)[C@H](CN)NC(=O)CSC[C@@H](C(=O)N[C@@H](C)C(N)=O)NC(=O)[C@H]([C@@H](C)O)NC(=O)[C@H](C(C)C)NC(=O)[C@H](CC(C)C)NC(=O)[C@H](CCN)NC(=O)[C@@H](CC(C)C)NC(=O)[C@H](C)N(C)C(=O)[C@H](CCCNC(=N)N)NC(=O)[C@H](Cc3ccc(-c4ccccc4)cc3)NC(=O)[C@H](C(C)C)NC2=O)c1` [Compound 1457] ({CH2CO}-[Dap][Phe(4-COOH)]D[Phe(3-Me)]V[Bip]R[NMeA][dL][Dab]LVTCA-NH2; thioether N-14), with 0.01 µM; and `CC(C)C[C@@H]1NC(=O)[C@H](Cc2c[nH]c3ccccc23)NC(=O)[C@H](CC(=O)O)NC(=O)[C@H](Cc2ccncc2)NC(=O)[C@H](Cc2ccc(OCC(=O)O)cc2)NC(=O)CSC[C@@H](C(=O)N[C@@H](CCN)C(N)=O)NC(=O)[C@H](CO)NC(=O)[C@H](C(C)C)NC(=O)[C@H](CC2CCCCC2)NC(=O)[C@H](CCN)NC(=O)[C@@H](CC(C)C)NC(=O)[C@H](C)N(C)C(=O)[C@H](Cc2ccc(O)cc2)NC(=O)[C@H](Cc2ccc(-c3ccccc3)cc2)NC1=O` [Compound 1908] ({CH2CO}-Y(Carboxymethyl)[4Pal]DWL[Bip]Y[NMeA][dL][Dab][Cha]VSC[Dab]-NH2; thioether N-14), with 0.04 µM.

`CCNC(=O)[C@H](CCN)NC(=O)[C@@H]1CSCC(=O)N[C@@H](Cc2ccncc2)C(=O)N[C@@H](Cc2cccc(C#N)c2)C(=O)N[C@@H](CC(=O)O)C(=O)N[C@@H](Cc2cccc(C)c2)C(=O)N[C@@H](Cc2cccc(F)c2)C(=O)N[C@@H](Cc2ccc(-c3ccccc3)cc2)C(=O)N[C@@H](Cc2ccc(OCC(=O)O)cc2)C(=O)N(C)[C@@H](C)C(=O)N[C@H](CC(C)C)C(=O)N[C@@H](CCN)C(=O)N[C@@H](CC2CCCCC2)C(=O)N[C@@H](C(C)(C)O)C(=O)N[C@@H](CO)C(=O)N1` [Compound 1843] ({CH2CO}-[4Pal][Phe(3-CN)]D[Phe(3-Me)][Phe(3-F)][Bip]Y(Carboxymethyl)[NMeA][dL][Dab][Cha][Val(3-OH)]SC[Dab]-NHEt; thioether N-14): the IC50 stood at 0.01 µM. Under `CC(C)C[C@@H]1NC(=O)[C@H](CCCNC(=N)N)NC(=O)[C@@H](Cc2ccc(N)cc2)NC(=O)[C@H](C)N(C)C(=O)[C@H](CCCNC(=N)N)NC(=O)[C@H](Cc2ccc(-c3ccccc3)cc2)NC(=O)[C@H](C(C)C)NC(=O)[C@H](Cc2c[nH]c3ccccc23)NC(=O)[C@H](CC(=O)O)NC(=O)[C@H](Cc2ccc(O)cc2)NC(=O)[C@H](Cc2ccccc2)NC(=O)CSC[C@@H](C(=O)N[C@@H](C)C(N)=O)NC(=O)[C@H]([C@@H](C)O)NC(=O)[C@H](C(C)C)NC1=O` [Compound 1087] ({CH2CO}-FYDWV[Bip]R[NMeA][dPhe(4-NH2)]RLVTCA-NH2; thioether N-14) stands 0.33 µM; under `CC(C)C[C@@H]1NC(=O)[C@H](CCN)NC(=O)[C@@H](CC(C)C)NC(=O)[C@H](C)N(C)C(=O)[C@H](CCCNC(N)=O)NC(=O)[C@H](Cc2ccc(-c3ccccc3)cc2)NC(=O)[C@H](C(C)C)NC(=O)[C@H](Cc2c[nH]c3ccccc23)NC(=O)[C@H](CC(=O)O)NC(=O)[C@H](Cc2ccc(O)cc2)NC(=O)[C@H](CCCN)NC(=O)CSC[C@@H](C(=O)N[C@@H](C)C(N)=O)NC(=O)[C@H]([C@@H](C)O)NC(=O)[C@H](C(C)C)NC1=O` [Compound 1347] ({CH2CO}-[Orn]YDWV[Bip][Cit][NMeA][dL][Dab]LVTCA-NH2; thioether N-14), 0.03 µM; under `Cc1cccc(C[C@@H]2NC(=O)[C@H](CC(=O)O)NC(=O)[C@H](Cc3ccc(OCC(=O)O)cc3)NC(=O)[C@H]([C@@H](C)O)NC(=O)CSC[C@@H](C(N)=O)NC(=O)[C@H](CC(N)=O)NC(=O)[C@H](C(C)C)NC(=O)[C@H](CC3CCCCC3)NC(=O)[C@H](CC(N)=O)NC(=O)[C@@H](CC(C)C)NC(=O)[C@H](C)N(C)C(=O)[C@H](Cc3ccc(OCC(=O)O)cc3)NC(=O)[C@H](Cc3ccc(-c4ccccc4)cc3)NC(=O)[C@H](Cc3ccc(OCC(=O)O)cc3)NC2=O)c1` [Compound 1675] ({CH2CO}-TY(Carboxymethyl)D[Phe(3-Me)]Y(Carboxymethyl)[Bip]Y(Carboxymethyl)[NMeA][dL]N[Cha]VNC-NH2; thioether N-14), 0.12 µM. For `CC(C)C[C@@H]1NC(=O)[C@H](Cc2c[nH]c3ccccc23)NC(=O)[C@H](Cc2nn[nH]n2)NC(=O)[C@H](Cc2ccc(O)cc2)NC(=O)[C@H](Cc2ccccc2)NC(=O)CSC[C@@H](C(=O)N[C@@H](C)C(N)=O)NC(=O)[C@H](CO)NC(=O)[C@H](C(C)C)NC(=O)[C@H](CC(C)C)NC(=O)[C@H](CC(N)=O)NC(=O)[C@@H](CC(C)C)NC(=O)[C@H](C)N(C)C(=O)[C@H](C(C)C)NC(=O)[C@H](Cc2ccc(-c3ccccc3)cc2)NC1=O` [Compound 1541] ({CH2CO}-FY[Ala(1H-tetrazol-5-yl)]WL[Bip]V[NMeA][dL]NLVSCA-NH2; thioether N-14), the IC50 came out at 0.02 µM.
